In paper PMC10412585 (Nature Communications, 2023):

How the values were obtained:
Assay type in all cases: cell-based, human
[1] = tested on: HLA-E; test: HLA-E surface stabilization assay with RMA-S/HLA-E cells; conditions: peptide 3-300 µM (Fig. 3: 30 µM) in OptiMEM, 16 h, 37 °C, anti-HLA-E 3D12, flow cytometry, n = 4 replicate experiments
Description: To probe top-predicted proteome-derived peptides (Tables 2 and 3) for HLA-E binding, we assessed their ability to stabilize surface-expressed HLA-E on RMA-S/HLA-E cells, a TAP-deficient mouse cell line engineered to express HLA-E and human β2M (Fig. 3 and Supplemental Fig. 8)[47].
Fig. 3 Peptide stabilization of HLA-E surface expression. Assessment of peptide-HLA-E binding via HLA-E surface stabilization assay with RMA-S/HLA-E cells incubated with 30 μM peptide. HLA-E expression is detected with an anti-HLA-E antibody. Measurements from n = 4 replicate experiments are shown, with solid black lines indicating mean values. […] Source data are provided as a Source Data file.
RMA-S/HLA-E cells were incubated with serial dilutions of peptides (3–300 µM, Genscript) in OptiMEM (ThermoFisher) for 16 h at 37 °C. Cells were washed with PBS, stained for HLA-E (Clone 3D12, Biolegend, 1:200 dilution) for 15 min at room temperature and analyzed by flow cytometry (analysis in FlowJo version 10). Peptide UBAC2_275-279 was ordered as a 5mer peptide (WNRLF) given the similarity with other WN peptides and hypothesis of a truncated peptide binding in the HLA-E groove. […] Measurements from replicate experiments are plotted in Fig. 3 and Supplemental Fig. 8.

[2] = tested on: NKG2A+/NKG2C- NK cells; test: NK cell activation assay with peptide-pulsed K562/HLA-E cells, NKG2A+/NKG2C- NK cells; conditions: K562/HLA-E target cells, 300 µM peptide ([…] µM BFAR263-271), E:T 2:1, 6 h; degranulation (CD107a), IFN-γ, TNF, CCL3; flow cytometry
Description: (§1) We hypothesized that our predicted proteome-derived peptides could affect NK cell activation through interactions with CD94/NKG2A and CD94/NKG2C. To investigate, we performed cell-based activation assays on primary NK cells (Fig. 4A). NK cells were co-incubated with peptide-pulsed HLA-E-expressing K562 cells, as described previously. The parental K562 human myelogenous leukemia cell line is a typical target to measure NK cell cytotoxicity and activation, allowing for assessment of both NKG2A-mediated inhibition and NKG2C-mediated activation. […] NKG2A^-/NKG2C^- NK cells served as internal control as these should be unaffected by peptide-HLA-E complexes (Supplemental Fig. 12).
(§2) Fig. 4 NK cell stimulation assays. Assessment of effects of peptides on NK cell activity through incubation of NK cells, peptides, and (A) K562/HLA-E or (B) RMA-S/HLA-E target cells. […] Replicates for individual peptides are from different donors, with solid black lines indicating mean values. […] Representative gating for NKG2A^+/NKG2C^- and NKG2A^-/NKG2C^+ NK cells is shown in Supplemental Fig. 14. Source data are provided as a Source Data file.
(§3) All analyses of human data were carried out in compliance with the relevant ethical regulations. Healthy blood donors gave informed consent at DRK Blutspendedienst Nord-Ost, Dresden, Germany, and buffy coats were obtained as approved by Charité ethics committee (EA4/059/17). PBMCs were isolated from human CMV-seropositive buffy coats by density centrifugation over Ficoll Paque Plus (GE Healthcare) and screened for the presence of NKG2C^+ NK cell expansions by flow cytometry to have sufficient frequencies of single-positive cells for parallel assessment of activation and inhibition via HLA-E[47]. Total NK cells from donors with NKG2C^+ expansions (>10% NKG2A^-/NKG2C^+ NK cells) were enriched with CD56 microbeads (Miltenyi Biotec) and cryopreserved in FBS with 10% v/v DMSO. After thawing, NK cells were washed with complete medium, stained with antibodies and Fixable Viability Dye eFluor 780 (Thermo Fisher) for 15 min at 4 °C in PBS, sorted as viable CD56^+ CD3^− cells, and rested in complete media overnight. […] Brefeldin A and Monensin (BD Biosciences) were added after a 1 h culture period. After an additional 5 h, the stimulation was stopped by centrifugation at 4 °C. Cells underwent surface staining, followed by fixation and intracellular staining using Inside Stain Kit (Miltenyi Biotec). Samples were analyzed by flow cytometry on an LSR Fortessa (BD Biosciences). Inhibition of NKG2A^+ NK cells and activation of NKG2C^+ NK cells was assessed by gating on the respective single-positive populations (Supplemental Fig. 14). Antibodies are listed in Supplemental Table 1: anti-human CD56 PE/Dazzle 594 (1:200 dilution), CD3 APC-eFluor 780 (1:50 dilution), anti-human CD159a (NKG2A) Biotin REAfinity (1:50 dilution), anti-human CD159c (NKG2C) PE REAfinity (1:100 dilution), anti-human CD107a (LAMP-1) Alexa Fluor 488 (1:400 dilution), anti-human IFN-γ PE-Vio 770 REAfinity (1:50 dilution), anti-human TNF-α Brilliant Violet 605 (1:50 dilution), anti-human CCL3 (MIP-1α) REAfinity (1:25 dilution).

[3] = tested on: NKG2A-/NKG2C+ NK cells; test: NK cell activation assay with peptide-pulsed K562/HLA-E cells, NKG2A-/NKG2C+ NK cells; conditions: K562/HLA-E target cells, 300 µM peptide ([…] µM BFAR263-271), E:T 2:1, 6 h; degranulation (CD107a), IFN-γ, TNF, CCL3; flow cytometry
Description: as §1, §2, §3

[4] = tested on: NKG2A-/NKG2C- NK cells; test: NK cell activation assay with peptide-pulsed K562/HLA-E cells, NKG2A-/NKG2C- internal control; conditions: K562/HLA-E target cells, 300 µM peptide, flow cytometry
Description: We hypothesized that our predicted proteome-derived peptides could affect NK cell activation through interactions with CD94/NKG2A and CD94/NKG2C. To investigate, we performed cell-based activation assays on primary NK cells (Fig. 4A). NK cells were co-incubated with peptide-pulsed HLA-E-expressing K562 cells, as described previously. The parental K562 human myelogenous leukemia cell line is a typical target to measure NK cell cytotoxicity and activation, allowing for assessment of both NKG2A-mediated inhibition and NKG2C-mediated activation. A side-by-side comparison of the HLA-E expression levels of K562/HLA-E and RMA-S/HLA-E cell lines is shown in Supplemental Fig. 11. All peptides which bound and stabilized HLA-E in the cell-based stability experiment (Fig. 3) were analyzed for their effects on NKG2A^+/NKG2C^- or NKG2A^-/NKG2C^+ NK cell activity, as measured by their ability to induce NK cell degranulation as well as IFN-γ, TNF and CCL3 production, in comparison to class I MHC-derived positive control peptides […] and […], and negative control peptide […] […]
All analyses of human data were carried out in compliance with the relevant ethical regulations. […] Samples were analyzed by flow cytometry on an LSR Fortessa (BD Biosciences). Inhibition of NKG2A^+ NK cells and activation of NKG2C^+ NK cells was assessed by gating on the respective single-positive populations (Supplemental Fig. 14). […]

Sequence: SAPLKTRFL [UL120_71-79, AD169, divergent UL120 peptide of CMV strain AD169]
- stabilization of HLA-E surface expression [1]: weaker but detectable stabilization
- inhibitory effects on NKG2A+ cells [2]: negatively affect activation of all subsets
- activating effects on NKG2C+ cells [3]: negatively affect activation of all subsets
- effect on activation of internal NKG2A-/NKG2C- control NK cells [4]: negatively affect activation of all subsets
